Patent US8507557B2, “Potentiators of insulin secretion” (Wisconsin Alumni Research Foundation, priority 2003, dated 2013)

How the values were obtained:
[1] = test system: rat Ins-1 beta cell line; details: rat Ins-1 cells; effect not as dramatic as in responsive cell line
[2] = test system: Ins-1 cell; assay: Ins-1 cell insulin secretion assay, preliminary SAR study in high glucose (FIG. 1); assay type: cell-based, rat; details: presence of high glucose; Ins-1 cell assay
Method: The ability of various structurally-related compounds to alter insulin secretion in the presence of high glucose was tested in a preliminary structure-activity relationship (SAR) study to elucidate the molecular structures relevant to the insulin segretagogue potential of DPD and other αKG analogs. The compounds tested, shown in FIG. 1, are presented in order of decreasing ability to secrete insulin in an Ins-1 cell assay of the type described below in the Working Example. Each tested compound is commercially available and all were purchased from Sigma-Aldrich. Each compound contained two carboxylate groups. Variables evaluated in this study included the relative position of the carboxylate groups to one another, as well as the presence or absence of a nitrogen or sulfur group, additional R-groups, and esterified carboxy groups.

[3] = test system: hyperexcitable Newgard Ins-1 cells; details: low (3 mM) or high (15 mM) glucose; 2 hours at 3 mM glucose with compound, then 2 hours
Method: The cells were incubated at 3 mM glucose with the indicated concentrations of either αKG or the DPD analog for 2 hours. Then, the cells were incubated for an additional 2 hours in either 3 or 15 mM glucose.

[4] = test system: pancreatic β cells; assay: Insulin secretion from pancreatic β cells with Ca2+ channel, α2-adrenergic and KATP modulators; details: for effect on insulin secretion elicited by glyburide: in the presence of glyburide; for effect on insulin secretion caused by glucose, KIC, αKG or DPD: α2-adrenergic agonists
Method: The physiological relevance of insulin secretion from pancreatic β cells elicited by αKG was evaluated.
Possible targets for the segretagogue action of αKG were examined by reevaluating targets implicated for KIC-dependent increases in insulin secretion, since the effects of KIC are likely exerted through transamination that yields αKG. […] To biochemically test this hypothesis the inventors used known drugs to modulate KATP and then determined whether αKG and DPD could still affect insulin secretion.

[5] = test system: β cells; details: without affecting glucose metabolism; cited from earlier work
[6] = as reported in Diabetes Care 25:1271 (2002); cited from earlier work

CCOC(=O)c1ccnc(C(=O)OCC)c1 [DPD, 2,4-diethyl pyridine dicarboxylate]
effect on insulin secretion (fractional insulin release) [1]: increase in insulin secretion | insulin secretion [2]: ~14% | effect upon insulin secretion (fractional insulin release) [3]: marked positive effect | potency on insulin secretion relative to αKG [4]: extremely potent relative to αKG | effect on insulin secretion elicited by glyburide [4]: augmented

CC1=NS(=O)(=O)c2cc(Cl)ccc2N1 [Diazoxide]
effect on ability of αKG, DPD and KIC to promote insulin release ([4]; KATP agonist): completely suppresses

CC(C)CC(=O)C(=O)O [KIC, α-ketoisocaproic acid]
effect on insulin secretion elicited by glyburide [4]: augmented

Clc1cccc(Cl)c1N=C1NCCN1 [clonidine]
effect on insulin secretion caused by glucose, KIC, αKG or DPD [4]: greatly suppressed

CNC[C@H](O)c1ccc(O)c(O)c1 [epinephrine]
effect on insulin secretion caused by glucose, KIC, αKG or DPD [4]: greatly suppressed

O=c1c(-c2ccc(O)cc2)coc2cc(O)cc(O)c12 [genistein]
effect on KIC-stimulated insulin release [5]: inhibited

Cc1cnc(C(=O)NCCc2ccc(S(=O)(=O)NC(=O)NC3CCCCC3)cc2)cn1 [glipizide]
increase in insulin [6]: 54%

COc1ccc(Cl)cc1C(=O)NCCc1ccc(S(=O)(=O)NC(=O)NC2CCCCC2)cc1 [glyburide]
insulin secretion elicited ([4]; KATP antagonist): elicits an insulin secretion

CCOc1cc(CC(=O)N[C@@H](CC(C)C)c2ccccc2N2CCCCC2)ccc1C(=O)O [repaglinide]
increase in insulin [6]: 47%

N#C/C(=C\c1ccc(O)c(O)c1)C(N)=S [tyrphostin A47]
effect on KIC-stimulated insulin release [5]: inhibited

O=C(O)CCC(=O)C(=O)O [αKG, α-ketoglutarate]
effect on insulin secretion elicited by glyburide [4]: augmented
